Paper PMC5988656, “Phase I studies of AZD1208, a proviral integration Moloney virus kinase inhibitor in solid and haematological cancers” (British Journal of Cancer, 2018)

Experiment: Solid tumour dose-escalation study: pharmacokinetics (plasma, urine)
Assay type: in vivo, human
Description: The schedules for collection of blood and urine samples for PK analyses in each cohort in both studies are described in Supplementary Table 1. When necessary for clinical response assessment in the AML study, a bone marrow sample for PK analysis was collected at Cycle 1, Day 28.
The concentration of AZD1208 in plasma and urine was determined by Covance, on behalf of Clinical Bioanalysis Alliance at AstraZeneca R&D, using a bioanalytical method. A volume of 0.05 ml of K2EDTA human plasma sample was extracted by liquid–liquid extraction using 0.7 ml of methyl tert-butyl ether. Approximately 100 µl of the supernatant was transferred, evaporated to dryness and reconstituted with 350 µl of 1:1 methanol:water, and a 5 µl injection was made to the high-performance liquid chromatography (HPLC) column. HPLC separations were performed on a Phenomenex LUNA C18 (50 × 2 mm, 5 µm) column using a mobile phase of 0.1% formic acid in water (A) and 0.1% formic acid in acetonitrile (B) at a flow rate of 0.6 ml/min and a column temperature of 40 °C. AZD1208-D5 was used as the internal standard. Detection was performed in a Sciex API4000 mass spectrometer, in a positive electrospray ionisation mode, using multiple reaction monitoring detection (AZD1208: 380.0–>248.1; AZD1208-D5: 385.0–>253.1).

## N[C@@H]1CCCN(c2c(/C=C3\SC(=O)NC3=O)cccc2-c2ccccc2)C1 [AZD1208]
Cycle 0, Day 1, 1 h post-dose, 120 mg
  Plasma concentration of AZD1208, Gmean: n=3 156.2 ng ml
Cycle 0, Day 1, 1 h post-dose, 240 mg
  Plasma concentration of AZD1208, Gmean: n=7 668.4 ng ml
Cycle 0, Day 1, 1 h post-dose, 360 mg
  Plasma concentration of AZD1208, Gmean: n=5 1424 ng ml
Cycle 0, Day 1, 1 h post-dose, 540 mg
  Plasma concentration of AZD1208, Gmean: n=7 1053 ng ml
Cycle 0, Day 1, 1 h post-dose, 700 mg
  Plasma concentration of AZD1208, Gmean: n=6 691.7 ng ml
Cycle 0, Day 1, 1 h post-dose, 800 mg
  Plasma concentration of AZD1208, Gmean: n=6 925.6 ng ml
Cycle 0, Day 1, 1.5 h post-dose, 120 mg
  Plasma concentration of AZD1208, Gmean: n=3 696.5 ng ml
Cycle 0, Day 1, 1.5 h post-dose, 240 mg
  Plasma concentration of AZD1208, Gmean: n=7 1317 ng ml
Cycle 0, Day 1, 1.5 h post-dose, 360 mg
  Plasma concentration of AZD1208, Gmean: n=5 2509 ng ml
Cycle 0, Day 1, 1.5 h post-dose, 540 mg
  Plasma concentration of AZD1208, Gmean: n=7 2747 ng ml
Cycle 0, Day 1, 2 h post-dose, 120 mg
  Plasma concentration of AZD1208, Gmean: n=3 1064 ng ml
Cycle 0, Day 1, 2 h post-dose, 240 mg
  Plasma concentration of AZD1208, Gmean: n=7 1906 ng ml
Cycle 0, Day 1, 2 h post-dose, 360 mg
  Plasma concentration of AZD1208, Gmean: n=6 3412 ng ml
Cycle 0, Day 1, 2 h post-dose, 540 mg
  Plasma concentration of AZD1208, Gmean: n=7 4049 ng ml
Cycle 0, Day 1, 2 h post-dose, 700 mg
  Plasma concentration of AZD1208, Gmean: n=6 3514 ng ml
Cycle 0, Day 1, 2 h post-dose, 800 mg
  Plasma concentration of AZD1208, Gmean: n=6 2929 ng ml
Cycle 0, Day 1, 4 h post-dose, 120 mg
  Plasma concentration of AZD1208, Gmean: n=3 720.6 ng ml
Cycle 0, Day 1, 4 h post-dose, 240 mg
  Plasma concentration of AZD1208, Gmean: n=6 1531 ng ml
Cycle 0, Day 1, 4 h post-dose, 360 mg
  Plasma concentration of AZD1208, Gmean: n=6 3157 ng ml
Cycle 0, Day 1, 4 h post-dose, 540 mg
  Plasma concentration of AZD1208, Gmean: n=7 3160 ng ml
Cycle 0, Day 1, 4 h post-dose, 700 mg
  Plasma concentration of AZD1208, Gmean: n=6 4581 ng ml
Cycle 0, Day 1, 4 h post-dose, 800 mg
  Plasma concentration of AZD1208, Gmean: n=6 3844 ng ml
Cycle 0, Day 1, 6 h post-dose, 120 mg
  Plasma concentration of AZD1208, Gmean: n=3 681 ng ml
Cycle 0, Day 1, 6 h post-dose, 240 mg
  Plasma concentration of AZD1208, Gmean: n=7 1408 ng ml
Cycle 0, Day 1, 6 h post-dose, 360 mg
  Plasma concentration of AZD1208, Gmean: n=6 2501 ng ml
Cycle 0, Day 1, 6 h post-dose, 540 mg
  Plasma concentration of AZD1208, Gmean: n=7 3190 ng ml
Cycle 0, Day 1, 6 h post-dose, 700 mg
  Plasma concentration of AZD1208, Gmean: n=6 5091 ng ml
Cycle 0, Day 1, 6 h post-dose, 800 mg
  Plasma concentration of AZD1208, Gmean: n=6 2677 ng ml
Cycle 0, Day 1, 8 h post-dose, 120 mg
  Plasma concentration of AZD1208, Gmean: n=3 597.8 ng ml
Cycle 0, Day 1, 8 h post-dose, 240 mg
  Plasma concentration of AZD1208, Gmean: n=7 1456 ng ml
Cycle 0, Day 1, 8 h post-dose, 360 mg
  Plasma concentration of AZD1208, Gmean: n=6 2196 ng ml
Cycle 0, Day 1, 8 h post-dose, 540 mg
  Plasma concentration of AZD1208, Gmean: n=7 2957 ng ml
Cycle 0, Day 1, 8 h post-dose, 700 mg
  Plasma concentration of AZD1208, Gmean: n=6 4256 ng ml
Cycle 0, Day 1, 8 h post-dose, 800 mg
  Plasma concentration of AZD1208, Gmean: n=6 3463 ng ml
Cycle 0, Day 1, 24 h post-dose, 120 mg
  Plasma concentration of AZD1208, Gmean: n=3 459.4 ng ml
Cycle 0, Day 1, 24 h post-dose, 240 mg
  Plasma concentration of AZD1208, Gmean: n=7 1157 ng ml
Cycle 0, Day 1, 24 h post-dose, 360 mg
  Plasma concentration of AZD1208, Gmean: n=6 1649 ng ml
Cycle 0, Day 1, 24 h post-dose, 540 mg
  Plasma concentration of AZD1208, Gmean: n=7 2111 ng ml
Cycle 0, Day 1, 24 h post-dose, 700 mg
  Plasma concentration of AZD1208, Gmean: n=6 2957 ng ml
Cycle 0, Day 1, 24 h post-dose, 800 mg
  Plasma concentration of AZD1208, Gmean: n=6 2466 ng ml
Cycle 0, Day 1, 48 h post-dose, 120 mg
  Plasma concentration of AZD1208, Gmean: n=3 308.4 ng ml
Cycle 0, Day 1, 48 h post-dose, 240 mg
  Plasma concentration of AZD1208, Gmean: n=7 773.2 ng ml
Cycle 0, Day 1, 48 h post-dose, 360 mg
  Plasma concentration of AZD1208, Gmean: n=6 1361 ng ml
Cycle 0, Day 1, 48 h post-dose, 540 mg
  Plasma concentration of AZD1208, Gmean: n=7 1168 ng ml
Cycle 0, Day 1, 48 h post-dose, 700 mg
  Plasma concentration of AZD1208, Gmean: n=6 1717 ng ml
Cycle 0, Day 1, 48 h post-dose, 800 mg
  Plasma concentration of AZD1208, Gmean: n=6 1377 ng ml
Cycle 0, Day 1, 72 h post-dose, 120 mg
  Plasma concentration of AZD1208, Gmean: n=3 221.4 ng ml
Cycle 0, Day 1, 72 h post-dose, 240 mg
  Plasma concentration of AZD1208, Gmean: n=7 501.1 ng ml
Cycle 0, Day 1, 72 h post-dose, 360 mg
  Plasma concentration of AZD1208, Gmean: n=6 912.2 ng ml
Cycle 0, Day 1, 72 h post-dose, 540 mg
  Plasma concentration of AZD1208, Gmean: n=7 710.8 ng ml
Cycle 0, Day 1, 72 h post-dose, 700 mg
  Plasma concentration of AZD1208, Gmean: n=6 1141 ng ml
Cycle 0, Day 1, 72 h post-dose, 800 mg
  Plasma concentration of AZD1208, Gmean: n=6 798.7 ng ml
Cycle 1, Day 15, 0.25 h post-dose, 120 mg
  Plasma concentration of AZD1208, Gmean: n=3 963.7 ng ml
Cycle 1, Day 15, 0.25 h post-dose, 240 mg
  Plasma concentration of AZD1208, Gmean: n=6 606.8 ng ml
Cycle 1, Day 15, 0.25 h post-dose, 360 mg
  Plasma concentration of AZD1208, Gmean: n=2 562.8 ng ml
Cycle 1, Day 15, 0.25 h post-dose, 540 mg
  Plasma concentration of AZD1208, Gmean: n=3 496.8 ng ml
